Assay results published in paper PMC11240878, “Synthesis, enzyme inhibition assay, and molecular modeling study of novel pyrazolines linked to 4-methylsulfonylphenyl scaffold: antitumor activity and cell cycle analysis” (RSC Advances, 2024).

What was measured:
UO-31 = assay: NCI single-dose GI%, renal; assay type: cell-based, human; conditions: UO-31, renal; 10.0 μM in one dose
SK-OV-3 = assay: NCI single-dose GI%, ovarian; assay type: cell-based, human; conditions: SK-OV-3, ovarian; 10.0 μM in one dose
T-47D = assay: NCI single-dose GI%, breast; assay type: cell-based, human; conditions: 10.0 μM in one dose
MDA-MB-468 = assay: NCI single-dose GI%, breast; assay type: cell-based, human; conditions: MDA-MB-468, breast; 10.0 μM in one dose
HCT-116 = assay: NCI single-dose GI%, colon; assay type: cell-based, human; conditions: HCT-116, colon; 10.0 μM in one dose
K-562 = assay: NCI single-dose GI%, leukemia; assay type: cell-based, human; conditions: K-562, leukemia; 10.0 μM in one dose
NCI-H226 = assay: NCI single-dose GI%, NSC lung; assay type: cell-based, human; conditions: 10.0 μM in one dose
SF-268 = assay: NCI single-dose GI%, CNS; assay type: cell-based, human; conditions: SF-268, CNS; 10.0 μM in one dose
HOP-62 = assay: NCI single-dose GI%, NSC lung; assay type: cell-based, human; conditions: HOP-62, NSC lung; 10.0 μM in one dose
59 cancer cell lines = assay: NCI 59 cancer cell line panel, single dose; assay type: cell-based, human; conditions: 10 μM single dose; for MG% (mean growth percent): 59 cell lines
NCI-H522 = assay: NCI single-dose GI%, NSC lung; assay type: cell-based, human; conditions: 10.0 μM in one dose
HL-60(TB) = assay: NCI single-dose GI%, leukemia; assay type: cell-based, human; conditions: 10.0 μM in one dose
COLO 205 = assay: NCI single-dose GI%, colon; assay type: cell-based, human; conditions: COLO 205, colon; 10.0 μM in one dose
MOLT-4 = assay: NCI single-dose GI%, leukemia; assay type: cell-based, human; conditions: MOLT-4, leukemia; 10.0 μM in one dose
BT-549 = assay: NCI single-dose GI%, breast; assay type: cell-based, human; conditions: BT-549, breast; 10.0 μM in one dose
A498 = assay: NCI single-dose GI%, renal; assay type: cell-based, human; conditions: 10.0 μM in one dose
A549/ATCC = assay: NCI single-dose GI%, NSC lung; assay type: cell-based, human; conditions: 10.0 μM in one dose
PC-3 = assay: NCI single-dose GI%, prostate; assay type: cell-based, human; conditions: PC-3, prostate; 10.0 μM in one dose
HCT-15 = assay: NCI single-dose GI%, colon; assay type: cell-based, human; conditions: HCT-15, colon; 10.0 μM in one dose
MCF7 = assay: NCI single-dose GI%, breast; assay type: cell-based, human; conditions: 10.0 μM in one dose
SNB-75 = assay: NCI single-dose GI%, CNS; assay type: cell-based, human; conditions: SNB-75, CNS; 10.0 μM in one dose
MALME-3M = assay: NCI single-dose GI%, melanoma; assay type: cell-based, human; conditions: 10.0 μM in one dose
EKVX = assay: NCI single-dose GI%, NSC lung; assay type: cell-based, human; conditions: 10.0 μM in one dose
UACC-257 = assay: NCI single-dose GI%, melanoma; assay type: cell-based, human; conditions: UACC-257, melanoma; 10.0 μM in one dose
SR = assay: NCI single-dose GI%, leukemia; assay type: cell-based, human; conditions: 10.0 μM in one dose
CAKI-1 = assay: NCI single-dose GI%, renal; assay type: cell-based, human; conditions: CAKI-1, renal; 10.0 μM in one dose
HT29 = assay: NCI single-dose GI%, colon; assay type: cell-based, human; conditions: 10.0 μM in one dose
UACC-62 = assay: NCI single-dose GI%, melanoma; assay type: cell-based, human; conditions: UACC-62, melanoma; 10.0 μM in one dose
RPMI-8226 = assay: NCI single-dose GI%, leukemia; assay type: cell-based, human; conditions: RPMI-8226, leukemia; 10.0 μM in one dose
MDA-MB-231/ATCC = assay: NCI single-dose GI%, breast; assay type: cell-based, human; conditions: 10.0 μM in one dose
SK-MEL-2 = assay: NCI single-dose GI%, melanoma; assay type: cell-based, human; conditions: SK-MEL-2, melanoma; 10.0 μM in one dose
HL-60 cells = assay: Cell cycle analysis by flow cytometry; assay type: cell-based, human; conditions: at IC50 concentration
Procedure: Flow cytometry measures cell growth in different cell cycle phases (G0–G1, S, G2/M and pre-G1).[33,77] This study aimed to find out how the target compounds affect the growth of cancer cells by examining at how they change the cell cycle and cause apoptosis in HL-60 cells.
The cell cycle analysis was conducted similarly to our prior study, using the leukemia HL-60 cell line. The cells were stained with the DNA fluorochrome PI and analyzed using a FACSCalibur flow cytometer.[33,77]

U251 = assay: NCI single-dose GI%, CNS; assay type: cell-based, human; conditions: 10.0 μM in one dose

SMILES	GI% (UO-31) [%]	GI% (SK-OV-3) [%]	melting point [°C]	GI% (T-47D) [%]	GI% (MDA-MB-468) [%]	GI% (HCT-116) [%]	GI% (K-562) [%]	GI% (NCI-H226) [%]	GI% (HOP-62) [%]	PCE (positive cytotoxic effect: ratio of cell lines with growth inhibition >10% to total cell lines) (59 cancer cell lines)	MG% (mean growth percent) (59 cancer cell lines) [%]	GI% (NCI-H522) [%]	GI% (HL-60(TB)) [%]	GI% (MOLT-4) [%]	GI% (A549/ATCC) [%]	GI% (PC-3) [%]	GI% (MCF7) [%]	GI% (SNB-75) [%]	GI% (EKVX) [%]	GI% (CAKI-1) [%]	other results
COc1ccc(C2=NN(C(=O)c3ccc(S(C)(=O)=O)cc3)C(c3ccc(OC)c(OC)c3)C2)c(OC)c1 (stereo not drawn) [Compound 18p, (3-(2,4-Dimethoxyphenyl)-5-(3,4-dimethoxyphenyl)-4,5-dihydro-1H-pyrazol-1-yl)(4-(methylsulfonyl)phenyl)methanone]	25	16	169 to 171	25	13	17	23	15	26	11/59	97.33	13	31								GI% (SF-268): 11%
CS(=O)(=O)c1ccc(C(=O)N2N=C(c3ccccc3)CC2c2ccc3c(c2)OCO3)cc1 (stereo not drawn) [Compound 18m, (5-(Benzo[d][1,3]dioxol-5-yl)-3-phenyl-4,5-dihydro-1H-pyrazol-1-yl)(4-(methylsulfonyl)phenyl)methanone]	34	16	155 to 157	22		18	40	11	17	18/59	91.96	13	63	48	20	15	16	12			GI% (COLO 205): 19%; GI% (BT-549): 14%; GI% (A498): 14%; GI% (HCT-15): 14%
CS(=O)(=O)c1ccc(C(=O)N2N=C(c3ccccc3)CC2c2ccccc2)cc1 (stereo not drawn) [Compound 18a, (3,5-Diphenyl-4,5-dihydro-1H-pyrazol-1-yl)(4-(methylsulfonyl)phenyl)methanone]	12		259 to 261				19	11		11/59	98.11	18	32	32	18				11		GI% (MALME-3M): 11%; GI% (UACC-257): 14%; GI% (SR): 13%
COc1ccc(C2=NN(C(=O)c3ccc(S(C)(=O)=O)cc3)C(c3cc(OC)c(OC)c(OC)c3)C2)cc1OC (stereo not drawn) [Compound 18q, (3-(3,4-Dimethoxyphenyl)-5-(3,4,5-trimethoxyphenyl)-4,5-dihydro-1H-pyrazol-1-yl)(4-(methylsulfonyl)phenyl)methanone]	24		150 to 152		12					6/59	97.51						12	13		13	GI% (A498): 13%
CS(=O)(=O)c1ccc(C(=O)N2N=C(c3ccccc3)CC2c2ccc(Cl)cc2)cc1 (stereo not drawn) [Compound 18b, (5-(4-Chlorophenyl)-3-phenyl-4,5-dihydro-1H-pyrazol-1-yl)(4-(methylsulfonyl)phenyl)methanone]	32	26	321 to 323	31	12	26	32	15	29	22/59	92.03	27	22	17	13	22	13	13	21	18	GI% (HT29): 13%; GI% (UACC-62): 14%; GI% (BT-549): 14%; GI% (RPMI-8226): 11%; GI% (MDA-MB-231/ATCC): 11%
Cc1ccc(C2CC(c3ccccc3)=NN2C(=O)c2ccc(S(C)(=O)=O)cc2)cc1 (stereo not drawn) [Compound 18f, (4-(Methylsulfonyl)phenyl)(3-phenyl-5-(4-tolyl)-4,5-dihydro-1H-pyrazol-1-yl)methanone]	24		225 to 227	16	15	20		17	12	21/59	93.80	37	14	30	16	28	11	20	13	16	GI% (SK-MEL-2): 11%; GI% (HT29): 12%; GI% (UACC-62): 12%; phase of cell cycle arrest (HL-60 cells): S/G2 phase; GI% (RPMI-8226): 18%; GI% (U251): 11%; GI% (UACC-257): 26%
